Consider 3 substances from patent US20070161585A1, “Immunopotentiator and method for enhancing immunoactivity using the same” (priority 2003, published 2007).

The test system of data set [1] is inflammatory cytokines in the serum of the mouse. The data set is described as follows: Serum inflammatory cytokines by ELISA after simultaneous administration of Gm^6ATC sequence and non-methylated CpG sequence to mice. It is filed as in vivo. The note with it: 5 nmol CpG-ODN1668 alone or mixed with equimolar second ODN, 400 μl saline, 2 hours later, mean (n=4). How it is done:
Accordingly, the Gm^6ATC sequence and CpG-ODN1668 containing the non-methylated sequence were simultaneously administered to a mouse to confirm an effect of inducting inflammatory cytokines. Regarding the doses of Gm^6ATC, GATC-dA and CpG-ODN1668, 5 nmol of CpG-ODN1668 was mixed with an equimolar amount of Gm^6ATC or GATC-dA, and the mixture was dissolved in 400 μl of a physiological saline solution. The resulting solution was administered to a mouse. Two hours later, the inflammatory cytokines in the serum of the mouse were measured by ELISA to confirm induction amounts.
The results shown in FIGS. 4 to 6 are expressed in terms of a mean value±standard deviation (n=4). In the graphs, one asterisk indicates “P<0.05”, two asterisks “P<0.01” and three asterisks “P<0.005”.
Background: In an ELISA, binding on a coated surface is turned into a signal by an enzyme label.

The subject of data set [2] is inflammatory cytokines (IL-6, IL-12 and TNF-α) in the serum. The data set can be described thus: Serum inflammatory cytokines by ELISA after single intraperitoneal administration of ODN to mice. The class given is in vivo. The note with it: Balb/c mouse; for IL-6 concentration in the serum / IL-12 concentration in the serum / TNF-α concentration in the serum: 10 nmol ODN in 400 μl saline, 2 hours later, mean; for Induction of inflammatory cytokines (in words): 10 nmol ODN, serum 2 hours later. How it is done: 10 nmol of each of GATC-dA (sequence containing a GATC sequence), GATC-m^6A (sequence containing a Gm^6ATC sequence), CpG-ODN1668 (sequence containing a non-methylated CpG sequence) and GpC-ODN1720 (sequence containing a […]) shown in Table 1 was collected, and dissolved in 400 μl of a physiological saline solution. The resulting solution was intraperitoneally administered to a Balb/c mouse (male, 6 weeks old; Sankyo Labo-Service). Two hours later, concentrations of inflammatory cytokines (IL-6, IL-12 and TNF-α) in the serum were measured by an enzyme-linked immunosorbent assay (ELISA; AN'ALIZA, Genzyme TECHNE corp.).
Two hours after the administration, the blood was collected from the heart of the mouse, and allowed to stand overnight at 4° C. The serum was collected therefrom by centrifugation (20,000 g, 20 minutes, 4° C.).
By the way, the results shown in FIGS. 1 to 3 are expressed in terms of a mean value±standard deviation. In the graphs, two asterisks indicate “P<0.01”, and three asterisks “P<0.005 (n=3 (IL-12), 4 (IL-6, TNF-α)))”.

For the substance “CpG-ODN1668: phosphothioate-stabilized oligonucleotide, non-methylated CpG motif, TCCATGACGTTCCTGATGCT (DNA TCCATGACGTTCCTGATGCT; phosphorothioate backbone, chemistry not fully specified)”, in data set [1], the “IL-6 concentration in the serum” value was found to be 530 pg/mL, the “IL-12 concentration in the serum” value is 730 pg/mL and the “TNF-α concentration in the serum” value turned out to be 760 pg/mL. Also, in data set [2], the “IL-6 concentration in the serum” value came to 2100 pg/mL, the “IL-12 concentration in the serum” value was 1000 pg/mL, the “TNF-α concentration in the serum” value was 1500 pg/mL and the “Induction of inflammatory cytokines (in words)” value is reported as “very strong inflammatory cytokines were induced”.

On to “GATC-dA: phosphothioate-stabilized oligonucleotide, non-m^6A motif, TCCATGATCTTCCTGATGCT (DNA TCCATGATCTTCCTGATGCT; phosphorothioate backbone, chemistry not fully specified)”, for which, in data set [2], the “IL-6 concentration in the serum” value is 14 pg/mL, the “IL-12 concentration in the serum” value was found to be 48 pg/mL and the “TNF-α concentration in the serum” value was 92 pg/mL.

In the case of “GpC-ODN1720: phosphothioate-stabilized oligonucleotide, non CpG motif, CC ATG AGC TTC CTG ATG CT (DNA CCATGAGCTTCCTGATGCT; phosphorothioate backbone, chemistry not fully specified)”, in data set [2], the “IL-6 concentration in the serum” value came to 28 pg/mL, the “IL-12 concentration in the serum” value is 33 pg/mL, the “TNF-α concentration in the serum” value came out at 47 pg/mL and the “Induction of inflammatory cytokines (in words)” value was “little induced”.
